Data as given in patent US20100279918A1, “Chimeric Constructs Between Cancer-Homing Peptides and Cell-Penetrating Peptides Coupled to Anticancer Drugs and/or Diagnostic Agent/Agents” (Burnham Institute for Medical Research, priority 2006, published 2010).
pIC50: −log10 of the molar value. “Also recorded” adds a separate entry of the source. Read-outs that look alike come from different tables or passages of the source. Where a SMILES comes first, the peptide text is derived from it. Bridges are numbered along the chain shown (N, C = ends). The star is where a group is joined. Chlorambucil = O=C(CCCc1ccc(N(CCCl)CCCl)cc1)*

Tests used:
[1] = tested on: MCF-7 cells; test: Toxicity study (CellTiter-Glo)
Method: FIG. 11. Cytotoxicity study of pVEC (SEQ ID NO:6) in MCF-7 cell line. Cells were exposed to different concentrations of pVEC solution in 150 μl of 1% FBS containing media and incubated for 2 h or 48 h at 37° C. The plate was cooled to room temperature, CellTiter-Glo® Reagent (150 μl) was added and the luminescence was measured. The percent of viable cells was compared to the non-treated cells.
FIG. 12. Cytotoxicity study of Cbl and Cbl conjugated peptides in MCF-7 cell line. Cells were exposed to different concentrations of Cbl, Cbl-pVEC (SEQ ID NO:6), Cbl-CREKA-pVEC (SEQ ID NO:22) and Cbl-PEGA-pVEC (SEQ ID NO:21) (0, 1, 5, 55, 100, 150, 200, 400 and 800 (only with Cbl) μM) solution in 150 μl of 1% FBS containing complete media and incubated for 3 h at 37° C. After that 150 μl of 10% FBS containing media was added and the cells were incubated additionally for 45 h at 37° C. (altogether 48 h). The plate was cooled to room temperature, CellTiter-Glo® Reagent (150 μl) was added and the luminescence was measured. The percent of viable cells was compared to the non-treated cells. IC50 values were calculated using GraphPad Prism 4 software.
MCF-7 and MDA-MB-231 cells (20 000 cells/well) were seeded in a 48 well plate two days before the experiment. The cells were exposed to drug in different concentration in full media containing 1% FBS for 3 h where after 10% FBS containing full media was added to achieve 5% FBS containing media and then incubated 45 or 69 h at 37° C. The plate was cooled to room temperature and CellTiter-Glo® Reagent (Promega) was added. The plate was incubated for 10 min at room temperature where after the luminescence was measured.

[2] = tested on: MDA-MB-231 cells; test: Toxicity study (CellTiter-Glo); type: cell-based, human
Method: FIG. 13. Cytotoxicity study of Cbl and Cbl conjugated peptides in MDA-MB-231 cell line. […] (altogether 48 h). […] IC50 values were calculated using GraphPad Prism 4 software.

[3] = tested on: tumor mice; settings: about 300 μg per mouse for 15 days; cited from earlier work
[4] = tested on: MDA-MB-435 orthotopic xenograft tumors; test: Treatment of mice bearing MDA-MB-435 tumors with Cbl-peptide conjugates (tumor growth); type: in vivo, nude Balb/c mice; settings: 15 μg Cbl-equivalent/mouse i.v. every other day, seven times; p<0.01 vs controls
Method: FIG. 26. The inhibition of MDA-MB-435 tumor growth in mice with the Cbl-CREKA-pVEC (SEQ ID NO:22) conjugates. The MDA-MB-435 orthotopic xenografted mice (8 mice/group) were systemically treated with 15 μg of Cbl equivalent of Cbl-CREKA-pVEC (SEQ ID NO:22) and of the controls.
The orthotopic xenografted breast tumors were established by injecting 1×10^6 MDA-MB-435 human breast cancer cells into the mammary fat pad of nude Balb/c mice. Treatment started when mean tumor volumes reached about 100 mm^3. Mice with size-matched tumors were randomized into five groups (eight animals per group): Cbl-CREKA-pVEC (SEQ ID NO:22), Cbl plus CREKA-pVEC, Cbl-CREKA (SEQ ID NO:1), Cbl-pVEC (SEQ ID NO:6) and PBS. Mice were treated intravenously with 15 μg of Cbl-equivalent/mouse every other day for seven times. Tumor size was measured every three days. The mice were monitored for weight loss. The animal experiments reported here were approved by the Animal Research Committee of Burnham Institute for Medical Research.

[5] = read-out: IC50 value (cytotoxicity), MCF-7, 3 h in 1% FBS media, then 45 h (altogether 48 h)
[6] = MDA-MB-231, 3 h in 1% FBS media, then 45 h (altogether 48 h), read-out: IC50 value (cytotoxicity)

Structure (SMILES) | pIC50 [1, 5] | pIC50 [2, 6] | ED15d dose [3] | pIC50 ([1]; Homo sapiens, MCF7, read-out: IC50 value (cytotoxicity)) | pIC50 ([2]; Homo sapiens, MDA-MB-231, read-out: IC50 value (cytotoxicity)) | inhibition of tumor growth compared with control groups [4]
CC[C@H](C)[C@H](NC(=O)[C@H](CCCNC(=N)N)NC(=O)[C@H](CCCNC(=N)N)NC(=O)[C@H](CCCNC(=N)N)NC(=O)[C@H](CC(C)C)NC(=O)[C@@H](NC(=O)[C@@H](NC(=O)[C@H](CC(C)C)NC(=O)[C@H](CC(C)C)NC(=O)[C@@H]1CSSC[C@H](NC(=O)CCCc2ccc(N(CCCl)CCCl)cc2)C(=O)N2CCC[C@H]2C(=O)NCC(=O)N2CCC[C@H]2C(=O)N[C@@H](CCC(=O)O)C(=O)NCC(=O)N[C@@H](C)C(=O)NCC(=O)N1)[C@@H](C)CC)[C@@H](C)CC)C(=O)N[C@@H](CCCNC(=N)N)C(=O)N[C@@H](CCCCN)C(=O)N[C@@H](CCC(N)=O)C(=O)N[C@@H](C)C(=O)N[C@@H](Cc1c[nH]cn1)C(=O)N[C@@H](C)C(=O)N[C@@H](Cc1c[nH]cn1)C(=O)N[C@@H](CO)C(=O)N[C@@H](CCCCN)C(N)=O [Cbl-PEGA-pVEC] (Chlorambucil-CPGPEGAGCLLIILRRRIRKQAHAHSK-NH2; disulfide 1-9) | 4.52 | 4.43 | – | – | – | –
O=C(O)CCCc1ccc(N(CCCl)CCCl)cc1 [Cbl, reference compound] | – | – | 15 mg/kg | 3.89 | 3.79 | –
CC[C@H](C)[C@H](NC(=O)[C@H](CCCNC(=N)N)NC(=O)[C@H](CCCNC(=N)N)NC(=O)[C@H](CCCNC(=N)N)NC(=O)[C@H](CC(C)C)NC(=O)[C@@H](NC(=O)[C@@H](NC(=O)[C@H](CC(C)C)NC(=O)[C@H](CC(C)C)NC(=O)[C@H](C)NC(=O)[C@H](CCCCN)NC(=O)[C@H](CCC(=O)O)NC(=O)[C@H](CCCNC(=N)N)NC(=O)[C@H](CS)NC(=O)CCCc1ccc(N(CCCl)CCCl)cc1)[C@@H](C)CC)[C@@H](C)CC)C(=O)N[C@@H](CCCNC(=N)N)C(=O)N[C@@H](CCCCN)C(=O)N[C@@H](CCC(N)=O)C(=O)N[C@@H](C)C(=O)N[C@@H](Cc1c[nH]cn1)C(=O)N[C@@H](C)C(=O)N[C@@H](Cc1c[nH]cn1)C(=O)N[C@@H](CO)C(=O)N[C@@H](CCCCN)C(N)=O [Cbl-CREKA-pVEC] (Chlorambucil-CREKALLIILRRRIRKQAHAHSK-NH2) | 4.98 | 5.09 | – | – | – | significant decrease in tumor growth; also recorded: significant inhibition of tumor growth
